The target in one assay is T1, JAK3 (Homo sapiens, UniProt P52333).
T1 sequence (P52333 1-1124): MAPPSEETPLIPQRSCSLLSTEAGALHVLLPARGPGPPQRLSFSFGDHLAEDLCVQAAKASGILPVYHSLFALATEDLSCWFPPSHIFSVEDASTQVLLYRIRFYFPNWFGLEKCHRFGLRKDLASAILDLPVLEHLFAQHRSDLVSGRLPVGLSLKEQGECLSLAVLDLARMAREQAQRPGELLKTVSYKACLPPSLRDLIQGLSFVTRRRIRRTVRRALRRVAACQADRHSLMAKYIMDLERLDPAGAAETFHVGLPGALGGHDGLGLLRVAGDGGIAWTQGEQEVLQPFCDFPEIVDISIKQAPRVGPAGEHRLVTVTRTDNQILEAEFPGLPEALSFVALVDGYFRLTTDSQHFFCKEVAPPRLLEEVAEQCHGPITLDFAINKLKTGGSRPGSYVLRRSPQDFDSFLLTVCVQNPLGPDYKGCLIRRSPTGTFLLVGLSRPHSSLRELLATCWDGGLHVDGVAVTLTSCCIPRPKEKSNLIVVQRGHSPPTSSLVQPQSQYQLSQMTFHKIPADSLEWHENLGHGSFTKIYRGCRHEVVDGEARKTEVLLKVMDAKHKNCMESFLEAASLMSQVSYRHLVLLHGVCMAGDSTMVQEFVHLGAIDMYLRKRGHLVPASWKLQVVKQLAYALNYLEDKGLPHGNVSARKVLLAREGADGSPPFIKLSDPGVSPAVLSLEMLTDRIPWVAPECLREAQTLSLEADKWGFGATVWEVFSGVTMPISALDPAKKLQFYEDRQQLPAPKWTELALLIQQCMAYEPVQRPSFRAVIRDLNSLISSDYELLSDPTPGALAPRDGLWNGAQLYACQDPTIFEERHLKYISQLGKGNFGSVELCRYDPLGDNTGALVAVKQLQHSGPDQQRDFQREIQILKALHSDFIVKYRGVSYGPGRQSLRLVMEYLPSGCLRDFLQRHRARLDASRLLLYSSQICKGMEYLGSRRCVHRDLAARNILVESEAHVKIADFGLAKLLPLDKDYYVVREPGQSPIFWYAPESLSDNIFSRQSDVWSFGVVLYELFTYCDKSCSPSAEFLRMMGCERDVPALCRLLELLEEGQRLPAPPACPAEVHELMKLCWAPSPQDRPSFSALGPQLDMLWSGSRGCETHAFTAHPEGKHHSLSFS
Nature of the assay: JAK3 Inhibition Assay. To be noted: 1 nM JAK3, 1 μM poly(Glu)4Tyr, 5 μM ATP, 25° C., 33P incorporation. The class given is biochemical.

A further assay addresses JAK-2 enzyme (Homo sapiens, UniProt O60674). The assay can be described thus: JAK2 Inhibition Assay.

For 40 compounds, Ki results are on record in patent publication US8937064B2, “Pyrazolo[1,5-a]pyrimidines useful as JAK2 inhibitors” (Vertex Pharmaceuticals Incorporated, priority 2007, dated 2015).

The structures appear in SMILES notation. pKi: −log10 of the molar value.

Chain of JAK-2 enzyme (O60674 whole entry): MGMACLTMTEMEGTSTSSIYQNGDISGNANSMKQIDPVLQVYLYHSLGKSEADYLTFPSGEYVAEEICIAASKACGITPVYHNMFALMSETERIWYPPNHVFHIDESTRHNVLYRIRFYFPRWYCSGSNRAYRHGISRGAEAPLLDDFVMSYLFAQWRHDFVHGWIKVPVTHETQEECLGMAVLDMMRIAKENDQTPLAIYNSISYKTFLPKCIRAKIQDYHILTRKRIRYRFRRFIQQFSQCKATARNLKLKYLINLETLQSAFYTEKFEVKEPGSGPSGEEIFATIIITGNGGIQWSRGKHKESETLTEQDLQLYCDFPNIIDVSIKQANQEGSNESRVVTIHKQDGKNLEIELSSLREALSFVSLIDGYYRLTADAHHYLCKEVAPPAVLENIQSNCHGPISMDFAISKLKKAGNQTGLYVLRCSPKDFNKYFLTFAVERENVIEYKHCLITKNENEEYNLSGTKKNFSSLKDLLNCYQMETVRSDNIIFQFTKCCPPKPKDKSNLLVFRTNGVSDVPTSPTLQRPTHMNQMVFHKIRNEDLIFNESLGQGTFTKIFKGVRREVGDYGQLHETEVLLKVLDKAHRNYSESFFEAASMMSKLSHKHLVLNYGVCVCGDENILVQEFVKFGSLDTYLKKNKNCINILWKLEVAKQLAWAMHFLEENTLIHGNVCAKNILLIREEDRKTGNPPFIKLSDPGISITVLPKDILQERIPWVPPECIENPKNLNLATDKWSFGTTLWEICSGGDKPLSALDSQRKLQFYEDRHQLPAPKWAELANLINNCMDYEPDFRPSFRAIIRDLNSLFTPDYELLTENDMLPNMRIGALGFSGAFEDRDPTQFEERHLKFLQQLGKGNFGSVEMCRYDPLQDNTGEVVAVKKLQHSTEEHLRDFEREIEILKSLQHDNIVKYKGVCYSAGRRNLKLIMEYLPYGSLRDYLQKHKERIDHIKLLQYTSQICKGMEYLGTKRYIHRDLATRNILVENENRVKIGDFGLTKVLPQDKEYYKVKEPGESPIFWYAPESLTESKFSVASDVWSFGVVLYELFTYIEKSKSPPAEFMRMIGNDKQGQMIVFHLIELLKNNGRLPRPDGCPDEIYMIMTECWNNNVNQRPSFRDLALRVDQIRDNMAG

By pKi is commonly meant the Ki on a negative log10 scale, so that one unit is a factor of ten. Regarding `CCC(C#N)Oc1nc(N[C@@H](C)c2ccc(F)cc2F)cc(-c2cnn3cccnc23)n1` (some centres unmarked) [Compound 192], the negative logarithm of the Ki (pKi) at JAK3 is 7.00 to 8.00; at JAK-2 enzyme, above 8.00.

As to `C[C@H](Nc1cc(-c2cnn3cccnc23)nc(OCC(C)(C)N(C)C)n1)c1ccc(F)cc1F` [Compound 193], the negative logarithm of the Ki (pKi) on JAK3 was 6.30 to 7.00; at JAK-2 enzyme it was above 8.00.

Take `COC(C)(C)CCOc1nc(N[C@@H](C)c2ccc(F)cc2F)cc(-c2cnn3cccnc23)n1` [Compound 194]: the pKi at JAK3 was 6.30 to 7.00; on JAK-2 enzyme it was 7.00 to 8.00.

Turning to `C[C@H](Nc1cc(-c2cnn3cccnc23)nc(OCCN2CCCCC2)n1)c1ccc(F)cc1F` [Compound 195], the negative-log Ki (pKi) at JAK3 is 7.00 to 8.00; on JAK-2 enzyme, above 8.00.

Consider `COCCOc1nc(N[C@@H](C)c2ccc(F)cc2F)cc(-c2cnn3cccnc23)n1` [Compound 196], for which the pKi at JAK3 was 7.00 to 8.00; at JAK-2 enzyme it was above 8.00.

In the case of `C[C@H](Nc1cc(-c2cnn3cccnc23)nc(OCCN(C)C)n1)c1ccc(F)cc1F` [Compound 197], the pKi is 7.00 to 8.00 on JAK3 and above 8.00 on JAK-2 enzyme.

As to `C[C@H](Nc1cc(-c2cnn3cccnc23)nc(OCCC2CCCCN2)n1)c1ccc(F)cc1F` (some centres unmarked) [Compound 198], the pKi is 7.00 to 8.00 at JAK3 and above 8.00 on JAK-2 enzyme.

With `CNCCOc1nc(N[C@@H](C)c2ccc(F)cc2F)cc(-c2cnn3cccnc23)n1` [Compound 199], the pKi on JAK3 is 7.00 to 8.00; at JAK-2 enzyme it was above 8.00.

In the case of `C[C@H](Nc1cc(-c2cnn3cccnc23)nc(OC2CCN(C)CC2)n1)c1ccc(F)cc1F` [Compound 200], the figures for the pKi on JAK3 and at JAK-2 enzyme were 6.30 to 7.00 and above 8.00, respectively.

`CC(C#N)Oc1nc(N[C@@H](C)c2ccc(F)cc2F)cc(-c2cnn3cccnc23)n1` (some centres unmarked) [Compound 201]: the results for the pKi at JAK3 and at JAK-2 enzyme were 7.00 to 8.00 and above 8.00, respectively.

In the case of `C[C@H](Nc1cc(-c2cnn3cccnc23)nc(OCC2CCCNC2)n1)c1ccc(F)cc1F` (some centres unmarked) [Compound 202], the negative logarithm of the Ki (pKi) was 7.00 to 8.00 on JAK3 and above 8.00 on JAK-2 enzyme.

On to `C[C@H](Nc1cc(-c2cnn3cccnc23)nc(OCCOCCN2CCNCC2)n1)c1ccc(F)cc1F` [Compound 203], for which the negative-log Ki (pKi) at JAK3 is 6.30 to 7.00; at JAK-2 enzyme it was 7.00 to 8.00.

Consider `C[C@H](Nc1cc(-c2cnn3cccnc23)nc(OCCN2CCCC2)n1)c1ccc(F)cc1F` [Compound 204], for which the results for the pKi on JAK3 and at JAK-2 enzyme were 7.00 to 8.00 and above 8.00, respectively.

Regarding `C[C@H](Nc1cc(-c2cnn3cccnc23)nc(OCC2CC2)n1)c1ccc(F)cc1F` [Compound 205], the negative logarithm of the Ki (pKi) at JAK3 was 6.30 to 7.00; at JAK-2 enzyme, above 8.00.

On to `C[C@H](Nc1cc(-c2cnn3cccnc23)nc(OCCNC(C)(C)C)n1)c1ccc(F)cc1F` [Compound 206], for which the pKi at JAK3 was 7.00 to 8.00; on JAK-2 enzyme, above 8.00.

Regarding `CC(C)NCCOc1nc(N[C@@H](C)c2ccc(F)cc2F)cc(-c2cnn3cccnc23)n1` [Compound 207], the negative logarithm of the Ki (pKi) was 7.00 to 8.00 at JAK3 and above 8.00 on JAK-2 enzyme.

For the compound `CCN(CC)CCOc1nc(N[C@@H](C)c2ccc(F)cc2F)cc(-c2cnn3cccnc23)n1` [Compound 208], the negative logarithm of the Ki (pKi) at JAK3 is 7.00 to 8.00; at JAK-2 enzyme it was above 8.00.

For `C[C@H](Nc1cc(-c2cnn3cccnc23)nc(OCCN2CCCC2=O)n1)c1ccc(F)cc1F` [Compound 209], the negative-log Ki (pKi) at JAK3 was 7.00 to 8.00; on JAK-2 enzyme it was above 8.00.

For the compound `C[C@H](Nc1cc(-c2cnn3cccnc23)nc(OCCN2CCNCC2)n1)c1ccc(F)cc1F` [Compound 210], the results for the pKi on JAK3 and at JAK-2 enzyme were 7.00 to 8.00 and above 8.00, respectively.

Take `C[C@H](Nc1cc(-c2cnn3cccnc23)nc(OCCCN(C)C)n1)c1ccc(F)cc1F` [Compound 211]: the negative-log Ki (pKi) is 7.00 to 8.00 on JAK3 and above 8.00 at JAK-2 enzyme.

In the case of `CSCCOc1nc(N[C@@H](C)c2ccc(F)cc2F)cc(-c2cnn3cccnc23)n1` [Compound 212], the pKi was 7.00 to 8.00 at JAK3 and above 8.00 on JAK-2 enzyme.

`C[C@H](Nc1cc(-c2cnn3cccnc23)nc(OCCN2CCOCC2)n1)c1ccc(F)cc1F` [Compound 213]: the results for the pKi on JAK3 and at JAK-2 enzyme were 7.00 to 8.00 and above 8.00, respectively.

Regarding `CC1CC1COc1nc(N[C@@H](C)c2ccc(F)cc2F)cc(-c2cnn3cccnc23)n1` (some centres unmarked) [Compound 214], the figures for the negative logarithm of the Ki (pKi) at JAK3 and on JAK-2 enzyme were 6.30 to 7.00 and above 8.00, respectively.

As for `C[C@H](Nc1cc(-c2cnn3cccnc23)nc(OCC2CCCN(C)C2)n1)c1ccc(F)cc1F` (some centres unmarked) [Compound 215], the negative logarithm of the Ki (pKi) on JAK3 is 7.00 to 8.00; at JAK-2 enzyme, above 8.00.

Regarding `C[C@H](Nc1cc(-c2cnn3cccnc23)nc(OCC2CCCN2)n1)c1ccc(F)cc1F` (some centres unmarked) [Compound 216], the results for the negative logarithm of the Ki (pKi) at JAK3 and at JAK-2 enzyme were 6.30 to 7.00 and above 8.00, respectively.

As for `C[C@H](Nc1cc(-c2cnn3cccnc23)nc(OCCN2CCCCCC2)n1)c1ccc(F)cc1F` [Compound 217], the pKi on JAK3 is 7.00 to 8.00; on JAK-2 enzyme, above 8.00.

Consider `C[C@H](Nc1cc(-c2cnn3cccnc23)nc(OC2CCNC2)n1)c1ccc(F)cc1F` (some centres unmarked) [Compound 218], for which the results for the negative logarithm of the Ki (pKi) on JAK3 and on JAK-2 enzyme were 6.30 to 7.00 and 7.00 to 8.00, respectively.

On to `CC(C)OCCOc1nc(N[C@@H](C)c2ccc(F)cc2F)cc(-c2cnn3cccnc23)n1` [Compound 219], for which the pKi at JAK3 was 7.00 to 8.00; at JAK-2 enzyme it was above 8.00.

For the compound `C[C@H](Nc1cc(-c2cnn3cccnc23)nc(OCCCNCc2ccncc2)n1)c1ccc(F)cc1F` [Compound 220], the negative logarithm of the Ki (pKi) is 7.00 to 8.00 at JAK3 and above 8.00 at JAK-2 enzyme.

Regarding `C=CCOCCOc1nc(N[C@@H](C)c2ccc(F)cc2F)cc(-c2cnn3cccnc23)n1` [Compound 221], the negative logarithm of the Ki (pKi) is 7.00 to 8.00 on JAK3 and above 8.00 on JAK-2 enzyme.

As to `C[C@H](Nc1cc(-c2cnn3cccnc23)nc(OCC2CCOC2)n1)c1ccc(F)cc1F` (some centres unmarked) [Compound 222], the figures for the negative-log Ki (pKi) on JAK3 and on JAK-2 enzyme were 7.00 to 8.00 and above 8.00, respectively.

For the compound `C[C@H](Nc1cc(-c2cnn3cccnc23)nc(OCC2CCCC2)n1)c1ccc(F)cc1F` [Compound 223], the pKi is 6.30 to 7.00 at JAK3 and 7.00 to 8.00 at JAK-2 enzyme.

`C[C@H](Nc1ccnc(-c2cnn3cccnc23)n1)c1ccc(F)cc1` [Compound 224]: the figures for the negative-log Ki (pKi) at JAK3 and on JAK-2 enzyme were 6.30 to 7.00 and 7.00 to 8.00, respectively.

As for `CC[C@H](Nc1ccnc(-c2cnn3cccnc23)n1)c1ccc(F)c(F)c1` [Compound 225], the results for the pKi on JAK3 and on JAK-2 enzyme were 5.30 to 6.30 and 7.00 to 8.00, respectively.

On to `C[C@H](Nc1ccnc(-c2cnn3cccnc23)n1)c1ccc(Cl)cc1` [Compound 226], for which the pKi is 5.30 to 6.30 on JAK3 and 6.30 to 7.00 on JAK-2 enzyme.

Regarding `O=C(Nc1ccnc(-c2cnn3cccnc23)c1)c1ccc(F)cc1` [Compound 227], the pKi at JAK3 was 5.30 to 6.30; at JAK-2 enzyme, 6.30 to 7.00.

As to `O=C(Nc1ccnc(-c2cnn3cccnc23)c1)c1ccccc1F` [Compound 228], the negative logarithm of the Ki (pKi) at JAK3 is 5.30 to 6.30; on JAK-2 enzyme, 6.30 to 7.00.

For the compound `O=C(Nc1ccnc(-c2cnn3cccnc23)c1)c1ccc(F)cc1F` [Compound 229], the negative-log Ki (pKi) at JAK3 is 5.30 to 6.30; at JAK-2 enzyme, 6.30 to 7.00.

Turning to `N#Cc1cccc(C(=O)Nc2ccnc(-c3cnn4cccnc34)c2)c1` [Compound 230], the pKi on JAK3 was 5.30 to 6.30; at JAK-2 enzyme, 6.30 to 7.00.

For the compound `O=C(Nc1ccnc(-c2cnn3cccnc23)c1)c1ccc(F)c(F)c1` [Compound 231], the negative-log Ki (pKi) was 5.30 to 6.30 at JAK3 and 6.30 to 7.00 at JAK-2 enzyme.
